Results reported in patent US20110269812A1, “NOVEL BENZYLIDENE-INDOLINONE AND THEIR MEDICAL AND DIAGNOSTIC USES” (Agency for Science, Technology and Research, priority 2008, published 2011).
Like-named read-outs stand apart in the source and are kept apart here.

Legend:
[1] = system: NQO1; assay: Induction of NQO1 (QR) activity in Hepa1c1c7 cells
[2] = system: CYP1A1; assay: 7-ethoxyresorufin O-deethylase (EROD) assay, CYP1A1 induction in Hepa1c1c7 cells; type: cell-based, murine
Method: Hepa1c1c7 cells were plated at a density of 10000 cells per well in a 96-well plate and cultured for 24 h. A stock solution of test compound was prepared in DMSO and serially diluted with medium to give the desired concentration in the well. The final concentration of DMSO was 0.5% v/v. The cells were incubated with test compound for 48 h, after which the medium was removed, the well washed with 200 μl of 1×phosphate-buffered saline solution (PBS) and then incubated with 5 μM 7-ethoxyresorufin and 2 mM salicylamide in 200 μl of medium at 37° C., 40 min. Readings were taken at λexcitation of 530 nm and λemission of 590 nm on a fluorometer. Fluorescence (if any) of the test compound was determined at the same wavelengths to take into account its contribution to the observed readings. Readings of empty wells (no cells, “blank”) and wells with Hepa1c1c7 cells in medium containing 0.5% DMSO but without test compound (“control”) were also determined. TCDD, a strong inducer of CYP1A1 activity, as well as BNF and sulforaphane were used as controls.
CYP1A1 induction activity was given by the expression:
Degree of induction=FCells+test compound−FBlank/FControl−FBlank
The EROD assay was used for this purpose (Burke, M. D.; Mayer, R. T., Drug Metab Dispos 1974, 2, 583). EROD activity describes the rate at which CYP1A1 caused the O-deethylation of 7-ethoxyresorufin to resorufm. […] This ratio was determined for compounds at concentrations that were approximately 4 times their CD values. A fixed concentration was not used here because it would be difficult to select this concentration in view of the large variation in NQO1 induction activities. The quotient of NQO1 and CYP1A1 induction ratios (ratio determined at the same concentration) was also obtained for each compound. Values >1 would imply greater induction of NQO1 relative to CYP1A1.

[3] = system: THLE2; assay: Cell viability assay (Cell Titer-Glo), THLE2 normal hepatocyte cell line; type: cell-based; conditions: Homo sapiens, read-out: IC50 THLE2
Method: (§1) Cells were plated at 5000-7000 cells/per well and incubated for 24 h before treatment. […] Cell Titer-Glo (Promega, Madison, Wis.) assay was performed according to manufacturer's instruction with luminescence detected on SpectraMax M5 (Molecular Devices, Sunnyvale, Calif.). Data was expressed as percentage of viability vs. vehicle-treated controls.
(§2) The anti-cancer potential of these compounds against HCC were tested using a phenotypic assay where compounds were screened over 100-fold concentration range (0.1 to 10 μM) using two representative liver cancer cell lines, HepG2 and HuH7. Additionally, THLE2 was employed as normal hepatocyte cell line to differentiate anti-cancer potential from non-specific cytotoxicities.
(§3) Cell viability assay shown in FIG. 2 was analyzed by Prism5 for the determination of respective IC50 values.

[4] = system: Hepa1c1c7 cells; assay: MTT growth inhibition / cytotoxicity on Hepa1c1c7 cells; type: cell-based, murine; conditions: Mus musculus, Hepa-1c1c7, 48 h, highest concentration tested 25 μM
Method: The antiproliferative activity of the compounds according to the invention was determined by the MTT assay on the following cell lines: MCF7 (human breast cancer cell line), HCT116 (human colon cancer cell line), and CCL186 (normal human diploid embryonic lung fibroblast). […] MCF7 and CCL186 cells were cultured in Eagle's Minimum Essential Medium (EMEM) with 1 mM sodium pyruvate, 1.5 g/L sodium bicarbonate, 2 mM L-glutamine supplemented with 10% FBS and 0.01% antibiotics. HCT116 cells were cultured in McCoy's 5A Medium with 2.2 g/L sodium bicarbonate supplemented with […] and 0.01% antibiotics. Cells were plated at the following densities: 10000 cells/well (MCF7), 4000 cells/well (HCT116), 5000 cells/well (CCL186). They were grown for 24 h in a 96-well plate, with 100 μl of corresponding medium in each well. The test compounds were prepared in DMSO and diluted to a series of concentrations with medium. Not more than 1% DMSO (final concentration) was present in each well. The test compounds were incubated with the cells for 72 h, after which 100 μl MTT solution (0.5 mg/ml in 1× PBS) was added for 3 h and the cells lysed to release the formazan product. The latter was dissolved in DMSO (150 μl) and absorbance determined within 30 min at 590 nm on a microtitre plate reader. Cell survival was given by the expression:
Cell survival (%)=[(Acells+test compound−Ablank)/(Auntreated cells−Ablank)]×100
where A is the absorbance of formazan measured at 590 nm in the test (Acells+test compound), control (Auntreated cells) or blank (Ablank) wells. Each concentration of test compound was evaluated on 3 separate occasions. […] The MTT assay was also carried out on Hepa1c1c7 cells for the purpose of determining cytotoxicity of test compounds. The same procedure was adopted except that the incubation period of compound with cells was 48 h, instead of 72 h.

[5] = system: HuH7; assay: cells; type: cell-based, human; conditions: for IC50 / viability at 10 µM: Homo sapiens; for IC50: read-out: IC50 HuH7; for viability at 10 µM: vs vehicle-treated controls, read-out: Percentage viability HuH7; for SR(HuH7/THLE2) safety ratio: percentage viability at 10 μM normalized with THLE2
Method: as §1, §2, §3
(§4) Cell viability was determined as described previous in Table 7. Percentage viability at 10 μM treatments was determined and safety ratios were calculated by normalizing survival in HCC cell lines to THLE2.

[6] = system: HepG2; assay: cells; type: cell-based, human; conditions: for IC50 / viability at 10 µM: Homo sapiens; for IC50: read-out: IC50 HepG2; for viability at 10 µM: vs vehicle-treated controls, read-out: Percentage viability HepG2; for SR(HepG2/THLE2) safety ratio: percentage viability at 10 μM normalized with THLE2
Method: as §1, §2, §3, §4

[7] = 1 μM, read off from plot of degree of induction versus concentration

SMILES | IC50 ([3]; THLE-2, 72 h) [µM] | IC50 [4] [µM] | NQO1 induction ratio [1, 7] | melting point [°C] | CYP1A1 induction ratio ([2]; 1 μM, 48 h) | IC50 ([5]; Huh-7, 72 h) [µM] | viability at 10 µM ([5]; Huh-7, 72 h) [%] | SR(HuH7/THLE2) safety ratio [5] | IC50 ([6]; HepG2, 72 h) [µM] | viability at 10 µM ([6]; HepG2, 72 h) [%] | SR(HepG2/THLE2) safety ratio [6] | further results
O=c1cc(-c2ccccc2)oc2ccc3ccccc3c12 [BNF, β-naphthoflavone, reference compound] |  |  |  |  |  |  |  |  |  |  |  | NQO1 induction ratio ([1]; 0.01 μM): 1.83; NQO1/CYP1A1 Quotient ([1]; both ratios at 0.01 μM): 1.62; CYP1A1 induction ratio ([2]; 0.01 μM, read off from a curve): 1.13
COc1cccc(/C=C2/C(=O)Nc3cc(F)ccc32)c1 [Compound 39, (E)-6-Fluoro-3-(3-methoxybenzylidene)indolin-2-one] | > 10 | 9.8 | 3.21 | 169 to 170 | 1.25 ± 0.06 | > 10 | 65.8 ± 1.1 | 1.19 | 7.6 | 40 ± 4.2 | 1.95 | NQO1/CYP1A1 Quotient ([1]; both ratios at 1 μM): 2.57
COc1cccc(/C=C2/C(=O)Nc3ccc(Cl)cc32)c1 [Compound 40, (E)-5-Chloro-3-(3-methoxybenzylidene)indolin-2-one] | > 10 | 17.5 |  | 212 to 214 |  | > 10 | 57.5 ± 6.6 | 1.55 | 9.2 | 46.1 ± 2.2 | 1.93 | NQO1 induction ratio ([1]; 2.5 μM, read off from plot): 4.34; NQO1/CYP1A1 Quotient ([1]; both ratios at 2.5 μM): 3.29; CYP1A1 induction ratio ([2]; 2.5 μM, 48 h): 1.32 ± 0.08
COc1cccc(/C=C2/C(=O)Nc3cc(Cl)ccc32)c1 [Compound 41, (E)-6-Chloro-3-(3-methoxybenzylidene)indolin-2-one] | > 10 | > 25 |  | 198 to 200 |  | > 10 | 102 ± 6.9 | 0.87 | 8.5 | 46.4 ± 2.5 | 1.90 | NQO1 induction ratio ([1]; 0.1 μM, read off from plot): 2.56; NQO1/CYP1A1 Quotient ([1]; both ratios at 0.1 μM): 1.70; CYP1A1 induction ratio ([2]; 0.1 μM, 48 h): 1.51 ± 0.13
COc1ccc(/C=C2/C(=O)Nc3cc(F)ccc32)cc1O [Compound 43, (E)-6-Fluoro-3-(3-hydroxy-4-methoxybenzylidene)indolin-2-one] | > 10 | 15.6 |  | 225 to 227 |  | > 10 | 84.1 ± 7.5 | 1.22 | 1.2 | 28.3 ± 6.7 | 3.63 | NQO1 induction ratio ([1]; 0.5 μM, read off from plot): 4.10; NQO1/CYP1A1 Quotient ([1]; both ratios at 0.5 μM): 2.00; CYP1A1 induction ratio ([2]; 0.5 μM, 48 h): 2.05 ± 0.07
COc1ccc(/C=C2/C(=O)Nc3cc(Cl)ccc32)cc1O [Compound 44, (E)-6-Chloro-3-(3-hydroxy-4-methoxybenzylidene)indolin-2-one] | > 10 | > 25 | 5.09 | 220 to 223 | 2.33 ± 0.13 | > 10 | 63 ± 4 | 1.36 | 1 | 15 ± 1.3 | 5.72 | NQO1/CYP1A1 Quotient ([1]; both ratios at 1 μM): 2.18
CCN(CC)CCNC(=O)c1c(C)[nH]c(/C=C2\C(=O)Nc3ccc(F)cc32)c1C [Sunitinib, reference compound] |  |  |  |  |  |  | 3.4 ± 0.2 |  |  | 1.8 ± 0.3 |  | IC50 ([3]; THLE-2, viability (intracellular ATP, Cell Titer-Glo), 72 h, 0.1 to 10 μM, normal liver cell line): 4.5 µM; IC50 ([5]; Huh-7, viability (intracellular ATP, Cell Titer-Glo), 72 h, 0.1 to 10 μM): 4.7 µM; IC50 ([6]; HepG2, viability (intracellular ATP, Cell Titer-Glo), 72 h, 0.1 to 10 μM): 4.5 µM
Clc1cc2c(cc1Cl)Oc1cc(Cl)c(Cl)cc1O2 [TCDD, 2,3,7,8-Tetrachlorodibenzo-p-dioxin, reference compound] |  |  |  |  |  |  |  |  |  |  |  | CYP1A1 induction ratio (EROD assay) ([2]; 1 nM): 2.99
C[S+]([O-])CCCCN=C=S (centres unmarked) [sulforaphane, reference compound] |  |  | 3.89 |  | 0.924 |  |  |  |  |  |  | 
